# Laboratory results: paper PMC7665585, “Antidepressive effect of an inward rectifier K^+ channel blocker peptide, tertiapin-RQ” (PLoS ONE, 2020)
# Read-outs that look alike come from different tables or passages of the source. Bridge positions count the residues as written; N and C are the ends. Peptide text beside a SMILES is read from it.
# Legend:
# rat ROMK = target: T1, rat ROMK (Rattus norvegicus, UniProt P35560); assay: Whole-cell patch-clamp of ROMK currents in 208–4 cells; format: cell-based; settings: for inhibition at 1 µM: blockade at 1 μM estimated from fitted Hill curve (four parameters), n = 3–6, read-out: Activity (ROMK channel blocking activity, percentage of blockade at 1 μM); for IC50: 25°C
# T1 construct: expressed in transfected cells; host or cells: 293T cell line 208-4 (lentiviral transduction, GFP coexpressed)
# T1 sequence (P35560 1-391): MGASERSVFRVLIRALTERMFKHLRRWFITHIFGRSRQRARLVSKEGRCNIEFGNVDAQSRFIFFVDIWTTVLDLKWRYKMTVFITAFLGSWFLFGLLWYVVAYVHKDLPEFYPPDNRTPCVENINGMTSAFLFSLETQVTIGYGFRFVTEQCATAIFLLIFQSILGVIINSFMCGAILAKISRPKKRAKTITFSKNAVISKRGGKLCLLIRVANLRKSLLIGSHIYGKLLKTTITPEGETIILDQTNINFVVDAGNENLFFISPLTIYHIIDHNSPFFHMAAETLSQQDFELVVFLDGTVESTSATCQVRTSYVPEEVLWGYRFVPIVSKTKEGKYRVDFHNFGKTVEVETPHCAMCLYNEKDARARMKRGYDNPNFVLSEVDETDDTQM
# How it was run: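 ROMK stably expressed in 208–4 cells; GIRK transiently in 293T, recorded 24 h post-transfection; 25°C, Tyrode (high-K+ 50 mM for GIRK), K-aspartate/KCl pipette with 3 mM MgATP. Steps −150 to 10 mV from −70 mV; currents 60 s after peptide; conductance from I-V slope −140 to −100 mV, Ba2+-resistant current subtracted, normalized to 0 μM TPN.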
# Male ICR mice = assay: Wheel running test; format: in vivo, mouse; settings: i.c.v.; 4 min, immediately after EPM
# Protocol: We performed mouse behavioral experiments in accordance with our previous study. Male ICR mice (n = 199 in total) aged 5 weeks old were purchased from Shimizu Laboratory Supplies (Kyoto, Japan) and maintained in an animal facility for 7–12 days. They had free access to food and water and were kept in a 12-h light/dark cycle (08:00–20:00). Experiments were carried out between 11:00 and 17:00 in a quiet and air-conditioned experimental room, to which mice were habituated for 30–60 min before each experiment. Animal experiments were performed in accordance with the guidelines of the Physiological Society of Japan and were approved by the Committee for Animal Experiments of Kurashiki University of Science and the Arts. Peptides were dissolved in phosphate-buffered saline (PBS). Peptides were injected intracerebroventricularly (i.c.v.) 30 min before behavioral tests (typically 5 μL/mouse), according to a previous study. The mouse was placed into an anesthetizing jar, to which isoflurane (0.2 mL) was added immediately before. […]
# Spontaneous motor activity was measured with a multifunctional activity wheel (MK-770, Muromachi Kikai, Tokyo, Japan). […] The number of rotations was counted automatically.
Structure (SMILES),inhibition at 1 µM (rat ROMK; whole-cell conductance),"IC50 (rat ROMK; peptide pre-treated with protein disulfide isomerase, 30 min, n = 4 (Fig 2F), read-out: IC50, ROMK current, PDI-treated peptide)","IC50 (rat ROMK; whole-cell conductance, 60 sec after application, n = 3 (Fig 2E), read-out: IC50, ROMK current)",spontaneous rotations in activity wheel (Male ICR mice)
"CC[C@H](C)[C@@H]1NC(=O)[C@H](CCCNC(=N)N)NC(=O)[C@H](CCCNC(=N)N)NC(=O)[C@H](CC(N)=O)NC(=O)[C@@H]2CSSC[C@@H](C(=O)NCC(=O)N[C@@H](CCCCN)C(=O)N[C@@H](CCCCN)C(N)=O)NC(=O)[C@H](CCCCN)NC(=O)[C@H](CCCCN)NC(=O)[C@H](Cc3c[nH]c4ccccc34)NC(=O)[C@H](CSSC[C@H](NC(=O)[C@H](CC(C)C)NC(=O)[C@H](C)N)C(=O)N[C@@H](CC(N)=O)C(=O)N2)NC(=O)[C@H](CCC(N)=O)NC(=O)[C@H](Cc2c[nH]cn2)NC(=O)[C@@H]2CCCN2C(=O)[C@H]([C@@H](C)CC)NC1=O [Peptide 2, TPN-RQ] (H-ALCNCNRRIIPHQCWKKCGKK-NH2; disulfide 3-14, 5-18)",> 80%,0.24 µM,0.17 µM,decreased spontaneous motor activity
"CC[C@H](C)[C@@H]1NC(=O)[C@H](CCCNC(=N)N)NC(=O)[C@H](CC(N)=O)NC(=O)[C@@H]2CSSC[C@@H](C(=O)NCC(=O)N[C@@H](CCCCN)C(=O)N[C@@H](CCCCN)C(N)=O)NC(=O)[C@H](CCCCN)NC(=O)[C@H](CCCCN)NC(=O)[C@H](Cc3c[nH]c4ccccc34)NC(=O)[C@H](CSSC[C@H](NC(=O)[C@H](CC(C)C)NC(=O)[C@H](C)N)C(=O)N[C@@H](CC(N)=O)C(=O)N2)NC(=O)[C@H](CCC(N)=O)NC(=O)[C@H](CC(C)C)NC(=O)[C@@H]2CCCN2C(=O)[C@H]([C@@H](C)CC)NC(=O)[C@H]([C@@H](C)CC)NC1=O [Peptide 3, TPN-LQ] (H-ALCNCNRIIIPLQCWKKCGKK-NH2; disulfide 3-14, 5-18; N-terminus and C-terminus assumed)",60 to 80%,–,–,decreased
